Source: patent US3956333A, “1(Or 3)-perfluoroalkyl-3,4-dihydro-2(1H)-isoquinolinecarbonitriles” (Sterling Drug Inc., priority 1975, dated 1976)
Values after ≈ are worked out from the molar mass of the structure shown.

Columns and labels:
Staphylococcus aureus = assay: Antibacterial activity, standard serial dilution technique (MIC); type: cell-based; conditions: read-out: minimal (bacteriostatic) inhibitory concentration (MIC)
From the text: The antibacterial activities for the compounds of formulas I and II and the compound of formula V where R is pentafluoroethyl were established using standard serial dilution techniques as described by Goss and Cimijotti, Applied Microbiology 16, 1414 (1968).

[1] = tested on: platelet aggregate (thrombus); assay: In vivo inhibition of platelet aggregation, modified extracorporeal shunt technique (thrombus deposit weight); parameters: species or system New Zealand rabbits; conditions: single dose, 3 hours after medication; for % Inhibition of platelet aggregation (in vivo): P < 0.0005; for x Deposit Weight ± s.d.: mean
From the text: The antithrombotic or platelet aggregation inhibitory effect of the compounds of formulas I and II was further determined by a modified extracorporeal shunt technique in rabbits. Rowntree and Shinoya [J. Exp. Med. 46, 7 (1927)] described a method of extracorporeal circulation for the observation of thrombus formation. Downie et al. [Circulation Res. 12, 441 (1963)] modified this technique in order to study the effects of various chemicals upon the platelet aggregates formed in such a system. The following procedure, a further modification of said technique, was used to determine the antithrombotic activity of the compounds of the invention.
New Zealand rabbits weighing 1.5 to 3.0 kg. each were used for these studies. All animals were dosed orally by stomach tube with the test compound at a given time, e.g., 3, 8, 12, 24, etc. hours, prior to testing the blood samples. Control animals (from 3 to 5 in number for each dose level of compound) were given the vehicle used for solubilizing the compounds tested. All animals were anesthetized with sodium pentobarbital (Pentobrocanal) intravenously, 25-32 mg./kg., and secured to a dissecting board. The right femoral artery was cannulated and connected to a Statham pressure transducer (P 23AC) for continuously measuring arterial blood pressure which was recorded by means of a Grass (Model 7) polygraph.
A longitudinal incision was made in the midcervical region. The jugular vein and the carotid artery on one side were isolated and cannulated with appropriate size catheters filled with saline solution, which were in turn connected via Y-shaped polypropylene connectors establishing the shunt.
The components of the shunt were thoroughly siliconized except for the Y-connector on the arterial side. This connector is weighed prior to running the experiment. A blood sample was withdrawn from the femoral artery to provide a control platelet count. The animal was allowed 10-12 minutes to attain a relatively stable blood pressure level after which the shunt was opened and the blood permitted to flow. The time from the first appearance of blood, in the arterial catheter until its re-entry into the body, via the venous catheter, was measured and recorded, as flow time, which was used to determine the initial rate of flow.
The shunt remained open for a period of twenty minutes. One minute before the end, the femoral catheter was removed from the transducer and a second blood sample was taken. Duplicate platelet counts were made for each sample of blood. The shunt was removed from the animal by pulling out both catheters, arterial and venous, arterial first. The Y-connectors were washed with 10 cc. of saline solution. The arterial Y-connector was separated and dried in an oven overnight at 40°C., then reweighed. The initial weight of the connector was subtracted from the final weight, and the difference is considered to be the mass of the platelet aggregate (thrombus).
(single dose medication), the blood samples having been tested three hours after medication: […]

[2] = tested on: Platelet aggregation induced by collagen; conditions: Oryctolagus cuniculus, read-out: % Inhibition of platelet aggregation induced by collagen
[3] = tested on: Platelet aggregation induced by ADP; conditions: Oryctolagus cuniculus, read-out: % Inhibition of platelet aggregation induced by ADP

## FC(F)(F)C(F)(F)C1NCCc2ccccc21 (stereo not shown) [1,2,3,4-tetrahydro-1-(pentafluoroethyl)isoquinoline]
Staphylococcus aureus
  MIC: ~500 µg/mL (≈ 1990 µM)

## Cl.NC(=NO)N1CCc2ccccc2C1C(F)(F)C(F)(F)F (stereo not shown) [Example 1E]
[1]; 10 mg/kg oral
  % Inhibition of platelet aggregation (in vivo): 17%
  x Deposit Weight ± s.d.: 1.54 ± 0.09
[1]; 25 mg/kg oral
  % Inhibition of platelet aggregation (in vivo): 38%
  x Deposit Weight ± s.d.: 1.16 ± 0.05
[1]; 50 mg/kg oral
  % Inhibition of platelet aggregation (in vivo): 41%
  x Deposit Weight ± s.d.: 1.08 ± 0.08
[2]
  inhibition at 100 µM: 24.3%
[3]
  inhibition at 3000 µM: 74.2%

## NC(=NO)N1CCc2ccccc2C1C(F)(F)C(F)(F)C(F)(F)F (stereo not shown) [Example 2E]
[2]
  inhibition at 1000 µM: 94.2%
[3]
  inhibition at 1000 µM: 8.3%

## NC(=NO)N1Cc2ccccc2CC1C(F)(F)F (stereo not shown) [Example 3E]
[2]
  inhibition at 300 µM: 67.4%
[3]
  inhibition at 3000 µM: 64.4%
